Experimental data from patent US8044073B2, “Aminobenzimidazoles and benzimidazoles as inhibitors of respiratory syncytial virus replication” (Tibotec Pharmaceuticals, priority 2003, dated 2011).
Where two headings read alike, the source gives them in different places.

Columns and labels:
[1] = tested on: Respiratory Syncytial Virus; assay: In vitro screening for activity against RSV (tetrazolium-based colorimetric assay, protection against viral cytopathology); assay type: cell-based; conditions: human respiratory syncytial virus, read-out: Activity (converted)
In short: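 HeLa cells in Eagle's Basal Medium with 5% FCS and 20 mM Hepes, ~100 TCID50 RSV, five five-fold compound dilutions in triplicate with mock-infected row for cytotoxicity; 7 days at 37 °C, 5% CO2. MTT formazan read at 540 minus 690 nm; EC50 and CC50 from dose-response curves, SI = CC50/EC50.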

[2] = 168 h, Table 5a, RSV in HeLa cells, MTT, seven days after infection, pEC50 = -log of EC50 in molar units
[3] = 168 h, Table 5b, RSV in HeLa cells, MTT, seven days after infection, pEC50 = -log of EC50 in molar units
[4] = Table 6, numeric activity values, pEC50 (−log of EC50 in molar units)

Compound	melting point [°C]	other results
Cc1cccc(N(CCC(=O)O)Cc2ccc3nc(N)n(Cc4nc(C)ccc4O)c3c2)c1 [Compound 161, 3-{[2-amino-3-(3-hydroxy-6-methyl-pyridin-2-ylmethyl)-3H-benzoimidazol-5-ylmethyl]-m-tolyl-amino}-propionic acid]	165	EC50 ([1]; 168 h, Table 3, RSV in HeLa cells, MTT, seven days after infection, pEC50 = -log of EC50 in molar units): 7.94 nM
Cc1ccc(O)c(Cn2c(N)nc3ccc(Cn4c(=O)n(C5CC5)c5ccncc54)cc32)n1 [Compound 183]	> 250	EC50 ([1]; 168 h, Table 3b, RSV in HeLa cells, MTT, seven days after infection, pEC50 = -log of EC50 in molar units): 39.8 nM
CNc1nc2ccc(CN(CCO)c3cccc(C)c3)cc2n1Cc1nc(C)ccc1O [Compound 195, 2-(6-{[(2-hydroxy-ethyl)-m-tolyl-amino]-methyl}-2-methylamino-benzoimidazol-1-ylmethyl)-6-methyl-pyridin-3-ol]	204	EC50 [1, 2]: 15.8 nM
Cc1cccc(N(CCCO)Cc2ccc3nc(N)n(Cc4cccc5cccnc45)c3c2)c1 [Compound 205, 3-[(2-amino-3-quinolin-8-ylmethyl-3H-benzoimidazol-5-ylmethyl)-m-tolyl-amino]-propan-1-ol]	191	EC50 [1, 3]: 50.1 nM

Now from value to molecule, other results behind:

melting point [°C]	Compound	other results
252	Cc1cccc(NCc2cc(C)c3nc(N)n(Cc4nc(C)ccc4O)c3c2)c1 [Compound 194, 2-[2-amino-4-methyl-6-(m-tolylamino-methyl)-benzoimidazol-1-ylmethyl]-6-methyl-pyridin-3-ol]	EC50 [1, 2]: 12.6 nM
> 260	Nc1nc2cc(CO)ccc2n1Cc1cccc2cccnc12 [Compound 224, (2-amino-1-quinolin-8-ylmethyl-1H-benzoimidazol-5-yl)-methanol]	EC50 [1, 3]: > 100000 nM
248	Cc1ccc(O)c(Cn2cnc3cc(N)ccc32)n1 [Compound 259]	EC50 [1, 4]: > 100000 nM
> 250	Cc1ccc(O)c(Cn2cnc3ccc(N)cc32)n1 [Compound 261]	EC50 [1, 4]: > 100000 nM
